PubChem BioAssay AID2060909 (Molecular Pharmacology Branch, DTP, NCI, 2025)

Test system: 362531-283-R-J2-PDC complex spheroid viability
Experiment: Anticancer human tumor 362531-283-R-J2-PDC patient-derived colon adenocarcinoma cell line growth inhibition [RAS]
Settings: for IC50: curve of first compound; for viability, T/C: stronger effect = lower value
Outline: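 Agents were tested in combination matrices in half-log decrements from a top concentration at or near clinical Cmax (10 microM if undetermined). Targets were multi-cell spheroids of tumour lines plus HUVEC and MSC stromal cells.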
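Note: spheroids exposed to the agents for 7 days before readout.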
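Throughout, for viability, T/C: luminescence viability as percent of DMSO vehicle control wells.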

Structure (SMILES): NC1c2ccccc2OC12CCN(c1cnc3c(N4CCCc5ncccc54)n[nH]c3n1)CC2 (stereo unspecified) + CCn1c(-c2cc(N3CCN(C)CC3)cnc2C(C)OC)c2c3cc(ccc31)-c1csc(n1)CC(NC(=O)C1CC1C)C(=O)N1CCCC(N1)C(=O)OCC(C)(C)C2
- IC50 (second compound 0.000949 µM): 2040 nM
- IC50 (second compound 0.003 µM): 968 nM
- IC50 (second compound 0.00949 µM): 450 nM
- IC50 (second compound 0.03 µM): 152 nM
- IC50 (second compound 0.0949 µM): 40.1 nM
- IC50 (second compound 0.3 µM): < 31.6 nM
- viability, T/C (second compound 0.000949 µM, first compound 0.0316 µM): 93%
- viability, T/C (second compound 0.000949 µM, first compound 0.1 µM): 97.3%
- viability, T/C (second compound 0.000949 µM, first compound 0.316 µM): 88%
- viability, T/C (second compound 0.000949 µM, first compound 1 µM): 75.2%
- viability, T/C (second compound 0.000949 µM, first compound 3.16 µM): 34.6%
- viability, T/C (second compound 0.000949 µM, first compound 10 µM): 15.8%
- viability, T/C (second compound 0.003 µM, first compound 0.0316 µM): 95.2%
- viability, T/C (second compound 0.003 µM, first compound 0.1 µM): 90.3%
- viability, T/C (second compound 0.003 µM, first compound 0.316 µM): 81.8%
- viability, T/C (second compound 0.003 µM, first compound 1 µM): 50.8%
- viability, T/C (second compound 0.003 µM, first compound 3.16 µM): 8.91%
- viability, T/C (second compound 0.003 µM, first compound 10 µM): 4.54%
- viability, T/C (second compound 0.00949 µM, first compound 0.0316 µM): 91.7%
- viability, T/C (second compound 0.00949 µM, first compound 0.1 µM): 96.4%
- viability, T/C (second compound 0.00949 µM, first compound 0.316 µM): 67.1%
- viability, T/C (second compound 0.00949 µM, first compound 1 µM): 11%
- viability, T/C (second compound 0.00949 µM, first compound 3.16 µM): 4.02%
- viability, T/C (second compound 0.00949 µM, first compound 10 µM): 2.36%
- viability, T/C (second compound 0.03 µM, first compound 0.0316 µM): 94.4%
- viability, T/C (second compound 0.03 µM, first compound 0.1 µM): 70.9%
- viability, T/C (second compound 0.03 µM, first compound 0.316 µM): 13%
- viability, T/C (second compound 0.03 µM, first compound 1 µM): 7.15%
- viability, T/C (second compound 0.03 µM, first compound 3.16 µM): 5.36%
- viability, T/C (second compound 0.03 µM, first compound 10 µM): 2.24%
- viability, T/C (second compound 0.0949 µM, first compound 0.0316 µM): 56.5%
- viability, T/C (second compound 0.0949 µM, first compound 0.1 µM): 25.1%
- viability, T/C (second compound 0.0949 µM, first compound 0.316 µM): 6.77%
- viability, T/C (second compound 0.0949 µM, first compound 1 µM): 4.69%
- viability, T/C (second compound 0.0949 µM, first compound 3.16 µM): 4.6%
- viability, T/C (second compound 0.0949 µM, first compound 10 µM): 2.33%
- viability, T/C (second compound 0.3 µM, first compound 0.0316 µM): 16.5%
- viability, T/C (second compound 0.3 µM, first compound 0.1 µM): 9.81%
- viability, T/C (second compound 0.3 µM, first compound 0.316 µM): 5.67%
- viability, T/C (second compound 0.3 µM, first compound 1 µM): 4.89%
- viability, T/C (second compound 0.3 µM, first compound 3.16 µM): 4.53%
- viability, T/C (second compound 0.3 µM, first compound 10 µM): 2.17%

Structure (SMILES): Cc1nc(N2CCC3(CC2)COC(C)C3N)c(CO)nc1Sc1ccnc(N)c1Cl (stereo unspecified) + C=CC(=O)N1CCN(c2nc(OCC3CCCN3C)nc3c(F)c(-c4nc(N)cc(C)c4C(F)(F)F)c(Cl)cc23)C(C)C1
- IC50 (second compound 0.00316 µM): > 10000 nM
- IC50 (second compound 0.01 µM): > 10000 nM
- IC50 (second compound 0.0316 µM): > 10000 nM
- IC50 (second compound 0.1 µM): > 10000 nM
- IC50 (second compound 0.316 µM): > 10000 nM
- IC50 (second compound 1 µM): > 10000 nM
- viability, T/C (second compound 0.00316 µM, first compound 0.0316 µM): 111%
- viability, T/C (second compound 0.00316 µM, first compound 0.1 µM): 102%
- viability, T/C (second compound 0.00316 µM, first compound 0.316 µM): 103%
- viability, T/C (second compound 0.00316 µM, first compound 1 µM): 94.3%
- viability, T/C (second compound 0.00316 µM, first compound 3.16 µM): 83.5%
- viability, T/C (second compound 0.00316 µM, first compound 10 µM): 69.2%
- viability, T/C (second compound 0.01 µM, first compound 0.0316 µM): 110%
- viability, T/C (second compound 0.01 µM, first compound 0.1 µM): 101%
- viability, T/C (second compound 0.01 µM, first compound 0.316 µM): 97.5%
- viability, T/C (second compound 0.01 µM, first compound 1 µM): 86.3%
- viability, T/C (second compound 0.01 µM, first compound 3.16 µM): 85.9%
- viability, T/C (second compound 0.01 µM, first compound 10 µM): 77.5%
- viability, T/C (second compound 0.0316 µM, first compound 0.0316 µM): 111%
- viability, T/C (second compound 0.0316 µM, first compound 0.1 µM): 111%
- viability, T/C (second compound 0.0316 µM, first compound 0.316 µM): 99.3%
- viability, T/C (second compound 0.0316 µM, first compound 1 µM): 96.8%
- viability, T/C (second compound 0.0316 µM, first compound 3.16 µM): 81.5%
- viability, T/C (second compound 0.0316 µM, first compound 10 µM): 73.8%
- viability, T/C (second compound 0.1 µM, first compound 0.0316 µM): 117%
- viability, T/C (second compound 0.1 µM, first compound 0.1 µM): 104%
- viability, T/C (second compound 0.1 µM, first compound 0.316 µM): 98.4%
- viability, T/C (second compound 0.1 µM, first compound 1 µM): 92.4%
- viability, T/C (second compound 0.1 µM, first compound 3.16 µM): 82.4%
- viability, T/C (second compound 0.1 µM, first compound 10 µM): 79.8%
- viability, T/C (second compound 0.316 µM, first compound 0.0316 µM): 111%
- viability, T/C (second compound 0.316 µM, first compound 0.1 µM): 101%
- viability, T/C (second compound 0.316 µM, first compound 0.316 µM): 118%
- viability, T/C (second compound 0.316 µM, first compound 1 µM): 89.2%
- viability, T/C (second compound 0.316 µM, first compound 3.16 µM): 88.5%
- viability, T/C (second compound 0.316 µM, first compound 10 µM): 79.3%
- viability, T/C (second compound 1 µM, first compound 0.0316 µM): 108%
- viability, T/C (second compound 1 µM, first compound 0.1 µM): 111%
- viability, T/C (second compound 1 µM, first compound 0.316 µM): 101%
- viability, T/C (second compound 1 µM, first compound 1 µM): 86.1%
- viability, T/C (second compound 1 µM, first compound 3.16 µM): 83.1%
- viability, T/C (second compound 1 µM, first compound 10 µM): 68%

Structure (SMILES): CC1(C)CCC(Nc2ncc(C(F)(F)F)c(-c3c[nH]c4c(P(C)(C)=O)c(C#N)ccc34)n2)CN1 (stereo unspecified) + C=CC(=O)N1CCN(c2nc(OCC3CCCN3C)nc3c(F)c(-c4nc(N)cc(C)c4C(F)(F)F)c(Cl)cc23)C(C)C1
- IC50 (second compound 0.00316 µM): > 300 nM
- IC50 (second compound 0.01 µM): > 300 nM
- IC50 (second compound 0.0316 µM): > 300 nM
- IC50 (second compound 0.1 µM): > 300 nM
- IC50 (second compound 0.316 µM): > 300 nM
- IC50 (second compound 1 µM): > 300 nM
- viability, T/C (second compound 0.00316 µM, first compound 0.000949 µM): 96.5%
- viability, T/C (second compound 0.00316 µM, first compound 0.003 µM): 104%
- viability, T/C (second compound 0.00316 µM, first compound 0.00949 µM): 103%
- viability, T/C (second compound 0.00316 µM, first compound 0.03 µM): 100%
- viability, T/C (second compound 0.00316 µM, first compound 0.0949 µM): 107%
- viability, T/C (second compound 0.00316 µM, first compound 0.3 µM): 99.1%
- viability, T/C (second compound 0.01 µM, first compound 0.000949 µM): 103%
- viability, T/C (second compound 0.01 µM, first compound 0.003 µM): 112%
- viability, T/C (second compound 0.01 µM, first compound 0.00949 µM): 104%
- viability, T/C (second compound 0.01 µM, first compound 0.03 µM): 98.8%
- viability, T/C (second compound 0.01 µM, first compound 0.0949 µM): 109%
- viability, T/C (second compound 0.01 µM, first compound 0.3 µM): 101%
- viability, T/C (second compound 0.0316 µM, first compound 0.000949 µM): 105%
- viability, T/C (second compound 0.0316 µM, first compound 0.003 µM): 105%
- viability, T/C (second compound 0.0316 µM, first compound 0.00949 µM): 103%
- viability, T/C (second compound 0.0316 µM, first compound 0.03 µM): 98.7%
- viability, T/C (second compound 0.0316 µM, first compound 0.0949 µM): 106%
- viability, T/C (second compound 0.0316 µM, first compound 0.3 µM): 96.5%
- viability, T/C (second compound 0.1 µM, first compound 0.000949 µM): 102%
- viability, T/C (second compound 0.1 µM, first compound 0.003 µM): 105%
- viability, T/C (second compound 0.1 µM, first compound 0.00949 µM): 104%
- viability, T/C (second compound 0.1 µM, first compound 0.03 µM): 103%
- viability, T/C (second compound 0.1 µM, first compound 0.0949 µM): 104%
- viability, T/C (second compound 0.1 µM, first compound 0.3 µM): 107%
- viability, T/C (second compound 0.316 µM, first compound 0.000949 µM): 109%
- viability, T/C (second compound 0.316 µM, first compound 0.003 µM): 103%
- viability, T/C (second compound 0.316 µM, first compound 0.00949 µM): 111%
- viability, T/C (second compound 0.316 µM, first compound 0.03 µM): 98.6%
- viability, T/C (second compound 0.316 µM, first compound 0.0949 µM): 112%
- viability, T/C (second compound 0.316 µM, first compound 0.3 µM): 93.5%
- viability, T/C (second compound 1 µM, first compound 0.000949 µM): 99.2%
- viability, T/C (second compound 1 µM, first compound 0.003 µM): 101%
- viability, T/C (second compound 1 µM, first compound 0.00949 µM): 98.9%
- viability, T/C (second compound 1 µM, first compound 0.03 µM): 108%
- viability, T/C (second compound 1 µM, first compound 0.0949 µM): 113%
- viability, T/C (second compound 1 µM, first compound 0.3 µM): 105%
